Values quoted from earlier work in patent US12697312B2, “Methods and devices for treatment of eyelid ptosis” (priority 2022, dated 2026).

Key:
[1] = system: Müllers muscle; conditions: by activating post synaptic neuromuscular junction and muscle contraction
[2] = system: dry eye; conditions: eye drops containing retinyl palmitate 0.05 percent; Kim et al. (2009)

Compound	effect on the eyelid (ptosis) [1]	treatment of dry eye (keratoconjunctivitis sicca) [2]
CNC[C@H](O)c1cccc(O)c1 [Phenylephrine]	shown to lift the eyelid	
CCCCCCCCCCCCCCCC(=O)OC/C=C(C)/C=C/C=C(C)/C=C/C1=C(C)CCCC1(C)C [retinyl palmitate]		effective treatment for dry eye
